Data taken from US20240182910A1, “DRUG-REGULATABLE TRANSCRIPTION FACTORS” (Senti Biosciences, Inc., priority 2021, published 2024).

What was measured:
SCS (ScbR-KRAB) = tested on: SCS (ScbR-KRAB); set-up: key to Response to inducer: T (transgene transcription): A, activation; DA, deactivation; DR, derepression; key to Response to inducer: TF (transcription factor): B, binding; D, dissociation; details: Q-ON; PSCAON8 (PSV40-OscbR8); cited from earlier work
SCA (ScbR-VP16) = tested on: SCA (ScbR-VP16); set-up: key to Response to inducer: T (transgene transcription): A, activation; DA, deactivation; DR, derepression; key to Response to inducer: TF (transcription factor): B, binding; D, dissociation; details: QuoRex; PSCA (OscbR-PhCMVmin)PSPA (OpapRI-PhCMVmin); cited from earlier work
SCAE-KRAB = tested on: SCAE-KRAB; set-up: key to Response to inducer: T (transgene transcription): A, activation; DA, deactivation; DR, derepression; key to Response to inducer: TF (transcription factor): B, binding; D, dissociation; details: QuoRexE-ON (NOT IF gate); OscbR-OETR8-PhCMVmin; cited from earlier work
SCAPIT3 = tested on: SCAPIT3; set-up: key to Response to inducer: T (transgene transcription): A, activation; DA, deactivation; DR, derepression; key to Response to inducer: TF (transcription factor): B, binding; D, dissociation; details: QuoRexPIP-ON (NOT IF gate); OscbR8-OPIR3-PhCMVmin; cited from earlier work
PIT (PIP-VP16) = tested on: PIT (PIP-VP16); set-up: key to Response to inducer: T (transgene transcription): A, activation; DA, deactivation; DR, derepression; key to Response to inducer: TF (transcription factor): B, binding; D, dissociation; details: PIP-OFF; PPIR (OPIR-Phsp70 min); cited from earlier work
PIT3 (PIP-KRAB) = tested on: PIT3 (PIP-KRAB); set-up: key to Response to inducer: T (transgene transcription): A, activation; DA, deactivation; DR, derepression; key to Response to inducer: TF (transcription factor): B, binding; D, dissociation; details: PIP-ON; PPIRON (PSV40-OPIR3); cited from earlier work
tTAPIT3E-KRAB = tested on: tTAPIT3E-KRAB; set-up: key to Response to inducer: T (transgene transcription): A, activation; DA, deactivation; DR, derepression; key to Response to inducer: TF (transcription factor): B, binding; D, dissociation; details: TET-OFFPIP-ONE-ON; OtetO7-OPIR3-OETR8-PhCMVmin; cited from earlier work
ArgR-VP16 = tested on: ArgR-VP16; set-up: key to Response to inducer: T (transgene transcription): A, activation; DA, deactivation; DR, derepression; key to Response to inducer: TF (transcription factor): B, binding; D, dissociation; details: ART; PART (OARG-PhCMVmin); cited from earlier work
TtgA1 (TtgR-VP16) = TtgA1 (TtgR-VP16) (Pseudomonas putida, UniProt Q9AIU0); set-up: key to Response to inducer: T (transgene transcription): A, activation; DA, deactivation; DR, derepression; key to Response to inducer: TF (transcription factor): B, binding; D, dissociation; details: PEACE; PTtgR1 (OTtgR-PhCMVmin); cited from earlier work
Sequence of TtgA1 (TtgR-VP16) (Q9AIU0 whole entry, added parts left off): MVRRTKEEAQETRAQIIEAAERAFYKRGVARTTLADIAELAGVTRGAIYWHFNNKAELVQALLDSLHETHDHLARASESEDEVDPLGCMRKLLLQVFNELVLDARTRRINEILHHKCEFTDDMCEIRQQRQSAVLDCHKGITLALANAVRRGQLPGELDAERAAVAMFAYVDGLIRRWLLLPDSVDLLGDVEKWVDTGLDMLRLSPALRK

mUTS (KRAB-HucR) = tested on: mUTS (KRAB-HucR); set-up: key to Response to inducer: T (transgene transcription): A, activation; DA, deactivation; DR, derepression; key to Response to inducer: TF (transcription factor): B, binding; D, dissociation; details: UREX; PUREX8 (PSV40-OhucO8); cited from earlier work
BIT (BirA-VP16) = BIT (BirA-VP16) (Escherichia coli, UniProt P06709); set-up: key to Response to inducer: T (transgene transcription): A, activation; DA, deactivation; DR, derepression; key to Response to inducer: TF (transcription factor): B, binding; D, dissociation; details: PBIT3 (OBirA3-PhCMVmin); cited from earlier work
Sequence of BIT (BirA-VP16) (P06709 whole entry, added parts left off): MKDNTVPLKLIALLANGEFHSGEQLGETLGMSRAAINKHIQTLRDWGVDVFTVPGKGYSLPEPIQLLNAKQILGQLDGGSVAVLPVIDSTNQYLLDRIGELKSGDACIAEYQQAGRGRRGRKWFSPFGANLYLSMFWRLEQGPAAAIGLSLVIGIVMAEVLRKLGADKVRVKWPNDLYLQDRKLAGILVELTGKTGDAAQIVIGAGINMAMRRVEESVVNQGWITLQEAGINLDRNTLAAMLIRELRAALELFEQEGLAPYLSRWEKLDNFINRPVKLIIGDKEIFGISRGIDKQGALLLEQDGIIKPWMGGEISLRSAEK

[1] = tested on: nicotine-inducible transcription factor; details: U87MG reporter cells co-transduced with constructs 12 and 13 (cell group G); nicotine 10 uM and 1 uM; flow cytometry day 5; FIG. 2 and FIG. 3
Procedure: U87MG cells transduced with a 4×ZF10-1 BS_minYBTATA:mCherry vector (referred to as “reporter cells”) were plated at 6e5/cells in a 6 well plate on day 0.
Cannabinoid-inducible transcription factor constructs included a first monomer construct (construct 14) composed of a first anti-CBD VHH (CA-14), a zinc finger protein domain of SEQ ID NO: 1, a nuclear localization signal of SEQ ID NO: 2, a cleavable linker, and a BFP tag, and a second monomer construct (construct 15) composed of a 3×FLAG-tagged nuclear localization signal (NLS) of SEQ ID NO: 2, a VPR transcriptional activation domain, a second anti-CBD VHH that is oligomerizable with the first anti-CBD VHH (DB-21), a cleavable linker, and a GFP tag.
Day 5, flow cytometry was performed, and the cells were gate on GFP/BFP

cTA (CymR-VP16) = tested on: cTA (CymR-VP16); set-up: key to Response to inducer: T (transgene transcription): A, activation; DA, deactivation; DR, derepression; key to Response to inducer: TF (transcription factor): B, binding; D, dissociation; details: Cumate - activator; PCR5 (OCuO6-PhCMVmin); cited from earlier work
rcTA (rCymR-VP16) = tested on: rcTA (rCymR-VP16); set-up: key to Response to inducer: T (transgene transcription): A, activation; DA, deactivation; DR, derepression; key to Response to inducer: TF (transcription factor): B, binding; D, dissociation; details: Cumate - reverse activator; PCR5 (OCuO6-PhCMVmin); cited from earlier work
CymR = CymR (Pseudomonas putida, UniProt O33453); set-up: key to Response to inducer: T (transgene transcription): A, activation; DA, deactivation; DR, derepression; key to Response to inducer: TF (transcription factor): B, binding; D, dissociation; details: Cumate - repressor; PCuO (PCMV5-OCuO); cited from earlier work
Sequence of CymR (O33453 whole entry): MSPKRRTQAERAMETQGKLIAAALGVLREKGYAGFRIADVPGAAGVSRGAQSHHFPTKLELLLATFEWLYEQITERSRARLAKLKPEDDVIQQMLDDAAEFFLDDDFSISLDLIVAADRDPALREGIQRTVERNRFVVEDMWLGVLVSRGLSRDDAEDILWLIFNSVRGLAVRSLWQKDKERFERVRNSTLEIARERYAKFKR

p65-TraR = tested on: p65-TraR; set-up: key to Response to inducer: T (transgene transcription): A, activation; DA, deactivation; DR, derepression; key to Response to inducer: TF (transcription factor): B, binding; D, dissociation; details: O7x(tra box)-PhCMVmin; cited from earlier work
REDOX (REX-VP16) = REDOX (REX-VP16) (Streptomyces coelicolor, UniProt Q9WX14); set-up: key to Response to inducer: T (transgene transcription): A, activation; DA, deactivation; DR, derepression; key to Response to inducer: TF (transcription factor): B, binding; D, dissociation; details: PROP (OROP-PhCMVmin); cited from earlier work
Sequence of REDOX (REX-VP16) (Q9WX14 whole entry, added parts left off): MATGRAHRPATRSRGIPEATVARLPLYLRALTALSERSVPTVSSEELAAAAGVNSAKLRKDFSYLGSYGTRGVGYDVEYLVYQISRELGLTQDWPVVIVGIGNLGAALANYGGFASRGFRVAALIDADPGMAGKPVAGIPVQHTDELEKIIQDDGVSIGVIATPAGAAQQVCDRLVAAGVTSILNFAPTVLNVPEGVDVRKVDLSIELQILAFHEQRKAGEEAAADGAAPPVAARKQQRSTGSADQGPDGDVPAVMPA

VanA4 (VanR-KRAB) = tested on: VanA4 (VanR-KRAB); set-up: key to Response to inducer: T (transgene transcription): A, activation; DA, deactivation; DR, derepression; key to Response to inducer: TF (transcription factor): B, binding; D, dissociation; details: VAC-ON; PVanON8 (PhCMV-OVanO8); cited from earlier work
VanA1 (VanR-VP16) = tested on: VanA1 (VanR-VP16); set-up: key to Response to inducer: T (transgene transcription): A, activation; DA, deactivation; DR, derepression; key to Response to inducer: TF (transcription factor): B, binding; D, dissociation; details: VAC-OFF; P1VanO2 (OVanO2-PhCMVmin); cited from earlier work
tTAE-KRAB = tested on: tTAE-KRAB; set-up: key to Response to inducer: T (transgene transcription): A, activation; DA, deactivation; DR, derepression; key to Response to inducer: TF (transcription factor): B, binding; D, dissociation; details: TET-OFFE-ON (NOT IF gate); OtetO7-OETR8-PhCMVmin; cited from earlier work
E-KRAB = tested on: E-KRAB; set-up: key to Response to inducer: T (transgene transcription): A, activation; DA, deactivation; DR, derepression; key to Response to inducer: TF (transcription factor): B, binding; D, dissociation; details: E-ON; PETRON8 (PSV40-OETR8); cited from earlier work
ET (E-VP16) = tested on: ET (E-VP16); set-up: key to Response to inducer: T (transgene transcription): A, activation; DA, deactivation; DR, derepression; key to Response to inducer: TF (transcription factor): B, binding; D, dissociation; details: E-OFF; PETR (OETR-PhCMVmin); cited from earlier work
NS (HdnoR-KRAB) = tested on: NS (HdnoR-KRAB); set-up: key to Response to inducer: T (transgene transcription): A, activation; DA, deactivation; DR, derepression; key to Response to inducer: TF (transcription factor): B, binding; D, dissociation; details: NICE-ON; PNIC (PSV40-ONIC8); cited from earlier work
NT (HdnoR-VP16) = NT (HdnoR-VP16) (Paenarthrobacter nicotinovorans, UniProt Q8GAF9); set-up: key to Response to inducer: T (transgene transcription): A, activation; DA, deactivation; DR, derepression; key to Response to inducer: TF (transcription factor): B, binding; D, dissociation; details: NICE-OFF; PNIC (ONIC-PhCMVmin); cited from earlier work
Sequence of NT (HdnoR-VP16) (Q8GAF9 whole entry, added parts left off): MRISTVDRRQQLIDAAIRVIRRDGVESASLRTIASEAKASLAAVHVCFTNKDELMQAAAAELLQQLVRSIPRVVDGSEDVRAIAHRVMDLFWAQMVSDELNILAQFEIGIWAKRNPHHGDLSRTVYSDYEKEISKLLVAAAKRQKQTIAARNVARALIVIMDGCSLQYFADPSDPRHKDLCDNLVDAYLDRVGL

CC(C)CCCC[C@@H](O)[C@@H]1C(=O)OC[C@H]1CO [SCB1]
Response to inducer: T (transgene transcription) (SCS (ScbR-KRAB)): DR | Response to inducer: TF (transcription factor) (SCS (ScbR-KRAB)): D | Response to inducer: T (transgene transcription) (SCA (ScbR-VP16)): DA | Response to inducer: TF (transcription factor) (SCA (ScbR-VP16)): D | Response to inducer: T (transgene transcription) (SCAE-KRAB): DA | Response to inducer: TF (transcription factor) (SCAE-KRAB): D | Response to inducer: T (transgene transcription) (SCAPIT3): DA | Response to inducer: TF (transcription factor) (SCAPIT3): D

Pristinamycin I
Response to inducer: T (transgene transcription) (PIT (PIP-VP16)): DA | Response to inducer: TF (transcription factor) (PIT (PIP-VP16)): D | Response to inducer: T (transgene transcription) (SCAPIT3): DR | Response to inducer: TF (transcription factor) (SCAPIT3): D | Response to inducer: T (transgene transcription) (PIT3 (PIP-KRAB)): DR | Response to inducer: TF (transcription factor) (PIT3 (PIP-KRAB)): D | Response to inducer: T (transgene transcription) (tTAPIT3E-KRAB): DR | Response to inducer: TF (transcription factor) (tTAPIT3E-KRAB): D

N=C(N)NCCC[C@H](N)C(=O)O [Construct 1-Arginine, 1-Arginine]
Response to inducer: T (transgene transcription) (ArgR-VP16): A | Response to inducer: TF (transcription factor) (ArgR-VP16): B

O=C(CCc1ccc(O)cc1)c1c(O)cc(O)cc1O [Phloretin]
Response to inducer: T (transgene transcription) (TtgA1 (TtgR-VP16)): DA | Response to inducer: TF (transcription factor) (TtgA1 (TtgR-VP16)): D

O=c1[nH]c(=O)c2[nH]c(=O)[nH]c2[nH]1 [Uric acid]
Response to inducer: T (transgene transcription) (mUTS (KRAB-HucR)): DR | Response to inducer: TF (transcription factor) (mUTS (KRAB-HucR)): D

O=C(O)CCCC[C@@H]1SC[C@@H]2NC(=O)N[C@@H]21 [Biotin]
Response to inducer: T (transgene transcription) (BIT (BirA-VP16)): A | Response to inducer: TF (transcription factor) (BIT (BirA-VP16)): B

CN1CCCC1c1cccnc1 (centres unmarked) [nicotine]
reporter (mCherry) expression: percent of mCherry positive cells and mean fluorescent intensity [1]: induced concentration-dependent reporter expression

CC(C)c1ccc(C(=O)O)cc1 [Cumate]
Response to inducer: T (transgene transcription) (cTA (CymR-VP16)): DA | Response to inducer: TF (transcription factor) (cTA (CymR-VP16)): D | Response to inducer: T (transgene transcription) (rcTA (rCymR-VP16)): A | Response to inducer: TF (transcription factor) (rcTA (rCymR-VP16)): B | Response to inducer: T (transgene transcription) (CymR): DR | Response to inducer: TF (transcription factor) (CymR): D

CCCCCC(=O)CC(=O)N[C@H]1CCOC1=O [Construct 3-Oxo-C8-HSL, 3-Oxo-C8-HSL]
Response to inducer: T (transgene transcription) (p65-TraR): A | Response to inducer: TF (transcription factor) (p65-TraR): B

NC(=O)C1=CN([C@@H]2O[C@H](COP(=O)(O)OP(=O)(O)OC[C@H]3O[C@@H](n4cnc5c(N)ncnc54)[C@H](O)[C@@H]3O)[C@@H](O)[C@H]2O)C=CC1 [NADH]
Response to inducer: T (transgene transcription) (REDOX (REX-VP16)): DA | Response to inducer: TF (transcription factor) (REDOX (REX-VP16)): D

COc1cc(C(=O)O)ccc1O [Vanillic acid]
Response to inducer: T (transgene transcription) (VanA4 (VanR-KRAB)): DR | Response to inducer: TF (transcription factor) (VanA4 (VanR-KRAB)): D | Response to inducer: T (transgene transcription) (VanA1 (VanR-VP16)): DA | Response to inducer: TF (transcription factor) (VanA1 (VanR-VP16)): D

CC[C@H]1OC(=O)[C@H](C)[C@@H](O[C@H]2C[C@@](C)(OC)[C@@H](O)[C@H](C)O2)[C@H](C)[C@@H](O[C@@H]2O[C@H](C)C[C@H](N(C)C)[C@H]2O)[C@](C)(O)C[C@@H](C)C(=O)[C@H](C)[C@@H](O)[C@]1(C)O [Erythromycin]
Response to inducer: T (transgene transcription) (SCAE-KRAB): DR | Response to inducer: TF (transcription factor) (SCAE-KRAB): D | Response to inducer: T (transgene transcription) (tTAE-KRAB): DR | Response to inducer: TF (transcription factor) (tTAE-KRAB): D | Response to inducer: T (transgene transcription) (E-KRAB): DR | Response to inducer: TF (transcription factor) (E-KRAB): D | Response to inducer: T (transgene transcription) (tTAPIT3E-KRAB): DR | Response to inducer: TF (transcription factor) (tTAPIT3E-KRAB): D | Response to inducer: T (transgene transcription) (ET (E-VP16)): DA | Response to inducer: TF (transcription factor) (ET (E-VP16)): D

CN1CCCC1c1ccc(O)nc1 (centres unmarked) [6-Hydroxy-nicotine]
Response to inducer: T (transgene transcription) (NS (HdnoR-KRAB)): DR | Response to inducer: TF (transcription factor) (NS (HdnoR-KRAB)): D | Response to inducer: T (transgene transcription) (NT (HdnoR-VP16)): DA | Response to inducer: TF (transcription factor) (NT (HdnoR-VP16)): D
